Measurements reported in US20120244553A1, “BIOMARKER OF ALLERGIC DISEASE AND USE OF THE SAME” (UNIVERSITY OF TOYAMA, priority 2007, published 2012).
“Also recorded” adds a separate entry of the source.

Key:
[1] = system: mosquito salivary gland extract-induced scratching behavior; conditions: mouse; cited from earlier work
primary afferent = conditions: sensitized mouse; cited from earlier work
mice = conditions: animals such as mice; cited from earlier work
[2] = system: granzyme A-induced scratching behavior; assay: Suppression of scratching behavior induced by intradermal injection of granzyme A; format: in vivo, mouse; conditions: naltrexone injected 15 minutes before granzyme A
Description: (§1) On the day before the experiment, the hair on the rostral back of each mouse was removed. On the day of the experiment, the mouse was left in an observation cage for 1 hour to familiarize the mouse with the environment. After the familiarization, granzyme A (0.1 to 100 μg/site) or ESGM (10 μg/50 μL) was intradermally injected to the rostral back of the mouse. The mouse was returned to the observation cage (13×9×30 cm) immediately after the administration, and the behavior with no observer present was filmed with an 8-mm video camera. A protease inhibitor in an amount of 0.05 mL per 10 g of body weight of the mouse was injected into the tail vein 30 seconds before the administration of ESGM. Naltrexone in an amount of 0.1 mL per 10 g of body weight of the mouse was intradermally injected 15 minutes before the administration of granzyme A. The behavior after the injection was observed by playing back the video. Scratching behavior was determined by counting the number of times there was scratching of the injection portion and nearly areas with the hind paws. A mouse usually scratches several times for about 1 second, and a series of this behavior was determined as one instance of scratching behavior.

normal mice = assay: Behavior experiment: scratching behavior after intradermal injection of granzyme A; format: in vivo, mouse
Description: as §1

| Molecule | Effect on scratching behavior increased by repetitive injections of mosquito salivary gland extract [1] | Effect on enhanced activity of primary afferent after mosquito salivary gland extract injection (primary afferent) | also measured |
| --- | --- | --- | --- |
| CN1CCCC(n2nc(Cc3ccc(Cl)cc3)c3ccccc3c2=O)CC1 (centres unmarked) [azelastine] | is suppressed | suppressed | – |
| NCCc1c[nH]cn1 [histamine] | – | – | Scratching behavior caused by histamine (mice): does not cause scratching behavior |
| O=C1CC[C@@]2(O)[C@H]3Cc4ccc(O)c5c4[C@@]2(CCN3CC2CC2)[C@H]1O5 [naltrexone] | – | – | Effect on scratching behavior induced by intradermal injection of granzyme A [2]: suppressed |
| CC(C)(C)c1ccc(C(O)CCCN2CCC(C(O)(c3ccccc3)c3ccccc3)CC2)cc1 (centres unmarked) [terfenadine] | is not suppressed | not suppressed | – |
| granzyme A: serine protease expressed in CD4+ T cells; intradermally injected into mice to induce scratching (protein, listed as Homo sapiens) MRNSYRFLASSLSVVVSLLLIPEDVCEKIIGGNEVTPHSRPYMVLLSLDRKTICAGALIAKDWVLTAAHCNLNKRSQVILGAHSITREEPTKQIMLVKKEFPYPCYDPATREGDLKLLQLTEKAKINKYVTILHLPKKGDDVKPGTMCQVAGWGRTHNSASWSDTLREVNITIIDRKVCNDRNHYNFNPVIGMNMVCAGSLRGGRDSCNGDSGSPLLCEGVFRGVTSFGLENKCGDPRGPGVYILLSKKHLNWIIMTIKGAV | – | – | Dose giving peak scratching behavior (normal mice; intradermal injection): 10 μg/site; Scratching behavior induced by intradermal injection (normal mice; intradermal injection to rostral back, 0.1 to 100 μg/site): an itching reaction occurred; also recorded: induced; also recorded: induction of scratching behavior |
